Test results taken from patent US7390830B1, “Remedies or prophylactics for diseases in association with chemokines” (Teijin Limited, priority 1999, dated 2008).

What follows are compounds tested on THP-1 cells (assay: Inhibitory activity against cell chemotaxis caused by MCP-1). Settings: Homo sapiens, MCP-1 20 ng/mL.
Assay type: cell-based
Excerpt: In order to determine the inhibitory activity of the compounds according to the present invention against the cell chemotaxis, human monocytic leukemia cell line THP-1 was used as chemotactic cells according to the method of Fall et al. (J. Immunol. Methods, 1980, 33, 239-247) to determine the cell chemotaxis caused by monocyte chemotactic factor MCP-1 as follows: Namely, 2×10^6 cells/mL of the THP-1 cells [suspended in RPMI-1640 (Flow Laboratories Co.) 10% FCS] were placed in the upper chamber (200 μL) of a 96-well microchemotaxis chamber (Neuroprobe®), and human recombinant MCP-1 (Peprotech Co.) diluted with the same solution so as to provide the final concentration of 20 ng/mL was placed in the lower chamber (35 μL). A polycarbonate filter (PVP-free, Neuroprobe®) was placed between the two chambers. These were incubated in the presence of 5% of CO2 at 37° C. for 2 hours.
The filter was removed, and the cells which had migrated to the undersurface of the filter were immobilized, stained using Diff Quick (Kokusai Shiyaku Co.) and then measured at a measuring wavelength of 550 nm using a plate reader (Molecular Device Co.) to determine the means of 3 wells. Thereby, the indication of the number of cells migrated was obtained. The test compound together with the THP-1 cells was added to the upper chamber at various concentrations to determine the inhibitory activity against cell chemotaxis [degree of inhibition: IC50 (μM)].

IC50, ≤ 100 nM:
O=C(CNC(=O)c1cccc(C(F)(F)F)c1)NCC1CCN(Cc2ccc(Cl)cc2)CC1 [Compd. No. 461, 1-(4-chlorobenzyl)-4-[[N-[3-(trifluoromethyl)benzoyl]glycyl]aminomethyl]piperidine]
Nc1ccc(Br)cc1C(=O)NCC(=O)NCC1CCN(Cc2ccc(Cl)cc2)CC1 [Compd. No. 1042, 4-[N-(2-amino-5-bromobenzoyl)glycyl]aminomethyl-1-(4-chlorobenzyl)piperidine]
Cc1noc(C)c1CN1CC[C@@H](NC(=O)CNC(=O)c2cc(F)cc(C(F)(F)F)c2)C1 [Compd. No. 1191, (R)-3-[N-[3-fluoro-5-(trifluoromethyl)benzoyl]glycyl]amino-1-(3,5-dimethylisoxazol-4-ylmethyl)-pyrrolidine]
C=Cc1ccc(CN2CC[C@@H](NC(=O)CNC(=O)c3cc(C(F)(F)F)ccc3N)C2)cc1 [Compd. No. 1701, (R)-3-[[N-(2-amino-5-(trifluoromethyl)benzoyl)glycyl]amino]-1-(4-vinylbenzyl)pyrrolidine]
COc1ccc(CN2CC[C@@H](NC(=O)CNC(=O)c3cc(OC(F)(F)F)ccc3N)C2)cc1O [Compd. No. 1896, (R)-3-[[N-(2-amino-5-trifluoromethoxybenzoyl)glycyl]amino]-1-(3-hydroxy-4-methoxybenzyl)pyrrolidine]
Nc1cc(Cl)ccc1CN1CCC(CNC(=O)CNC(=O)c2cc(C(F)(F)F)ccc2N)CC1 [Compd. No. 1919, 4-[[N-(2-amino-5-trifluoromethylbenzoyl)glycyl]aminomethyl]-1-(2-amino-4-chlorobenzyl)piperidine]
Nc1cc(Cl)ccc1CN1CC[C@@H](NC(=O)CNC(=O)c2cc(OC(F)(F)F)ccc2N)C1 [Compd. No. 1921, (R)-3-[[N-(2-amino-5-trifluoromethoxybenzoyl)glycyl]amino]-1-(2-amino-4-chlorobenzyl)pyrrolidine]
Cc1ccc(CN2CCC(CNC(=O)CNC(=O)c3cc(F)c(F)cc3N)CC2)cc1N [Compd. No. 2114, 4-[[N-(2-amino-4,5-difluorobenzoyl)glycyl]aminomethyl]-1-(3-amino-4-methylbenzyl)piperidine]
Nc1cc(CN2CC[C@@H](NC(=O)CNC(=O)c3cc(C(F)(F)F)ccc3N)C2)ccc1Cl [Compd. No. 2132, (R)-1-(3-amino-4-chlorobenzyl)-3-[[N-(2-amino-5-trifluoromethylbenzoyl)glycyl]amino]pyrrolidine]
Nc1cc(CN2CCC(CNC(=O)CNC(=O)c3cc(F)c(F)cc3N)CC2)ccc1O [Compd. No. 2141, 4-[[N-(2-amino-4,5-difluorobenzoyl)glycyl]aminomethyl]-1-(3-amino-4-hydroxybenzyl)piperidine]
CNc1cc(CN2CC[C@@H](NC(=O)CNC(=O)c3cc(C(F)(F)F)ccc3N)C2)ccc1O [Compd. No. 2158, (R)-3-[[N-(2-amino-5-trifluoromethylbenzoyl)glycyl]amino]-1-(3-methylamino-4-hydroxybenzyl)pyrrolidine]
